Laboratory results published in paper PMC6426897, “Inhibition of NLRP3 inflammasome activation by cell-permeable stapled peptides” (Scientific Reports, 2019).
Where a SMILES comes first, the peptide text is derived from it. Bridges are numbered along the chain shown (N, C = ends). [ ]: non-standard residue; d: D form. R8 = C=CCCCCCC[C@@](C)(N)C(=O)O; S5 = C=CCCC[C@](C)(N)C(=O)O

Key:
[1] = test system: THP-1 cells; assay: Internalization of FAM-labeled peptides by flow cytometry; type: in vitro ADME, human; settings: THP-1, 37 °C, 4, 8 and 24 hours; FACS; three independent experiments
Experimental: As NLRP3 and ASC are cytosolic proteins, we examined whether the designed peptides could be taken up by monocytic cells to exert their biological effects. To assess peptide internalization, ms_NLRP3^PYD, ms_ASC^PYD #5 and #6 peptides were labeled with the FAM fluorophore at the N-terminus. Internalization of the FAM-labeled peptides was measured as the mean fluorescence intensity (MFI) by fluorescence-assisted cell sorting (FACS). THP-1 cells were incubated with FAM-labeled ms_NLRP3^PYD (12.5, 25 and 50 μM), ms_ASC^PYD #5 and #6 peptides (50 and 100 μM) for 4, 8 and 24 hours. The internalization of the three FAM-labelled peptides was concentration dependent (Fig. 7A,B). […] We also examined the internalization of FAM-labeled peptides in THP-1 cells by confocal microscopy. THP-1 cells were incubated with FAM-ms_NLRP3^PYD (100 μM), FAM-ms_ASC^PYD #5 or FAM-ms_ASC^PYD #6 (100 μM) for 4, 8 and 18 hours. FAM-labeled peptides localized primarily in the cytosol, but not in the nucleus, of THP-1 cells (Fig. 7C).
THP-1 cells (0.5 × 10^6) were incubated with FAM-NLRP3^PYD (12.5-25-50 μM), FAM-ASC^PYD #5 or FAM-ASC^PYD #6 (50-100 μM) peptides in a 6 well-plate. After 4, 8 and 24 h incubation, THP-1 cells were washed twice with PBS and harvested. The analysis was performed on a BD FACSCANTO II (BD Biosciences), and the data were analyzed using FlowJo (Treestar).

[2] = test system: ASC; assay: Imaging of ASC speck oligomerization in THP-1 cells; type: cell-based, human; settings: THP-1, LPS 0.1 μg/ml 4 h, nigericin 10 μM 1 h; 100 μM peptide; Fig. 8E
Experimental: Figure 8 ASC peptides effectively block IL-1β and IL-18 release and ASC oligomerization in human blood monocytes. (A) IL-1β and IL-18 were measured in cell-free supernatants from THP-1 cells incubated with FAM-ASC^PYD #5 or FAM-ASC^PYD #6 (12.5, 25,50 and 100 μM) for 24 h and primed with LPS (0.1 μg/ml, 4 h) followed by stimulation with nigericin (10 μM, 1 h), as assessed by ELISA. (B) Production of IL-1β and IL-18 from human blood monocytes stimulated or not with LPS (0.1 μg/ml, 4 h) alone or in a combination of ATP (5 mM, 30 min) in the presence of FAM-ASC^PYD #5 or FAM-ASC^PYD #6 (25, 50 and 100 μM) peptides. (C,D) Western blot analysis of processed IL-1β p17 (C) and Casp-1 p20 (D) in cell-free supernatants of THP-1 cells primed with LPS (0.1 μg/ml, 4 h), followed by stimulation with nigericin (10 μM, 1 h) in the presence of FAM-ASC^PYD #5 (25, 50 and 100 μM), FAM-ASC^PYD #6 (50 and 100 μM) peptides, or DMSO vehicle. Expression of pro-IL-1β p35 and pro-Casp-1 p50 was assessed in cell lysates. GAPDH was used as loading control. (E) Imaging of ASC speck oligomerization in THP-1 cells treated with LPS (0.1 μg/ml, 4 h) and nigericin (10 μM, 1 h) in the absence or presence of FAM-ASC^PYD #5 or FAM-ASC^PYD #6 (100 μM) peptides. The number of ASC specks were counted manually in at least 100 cells, and the proportion of cells containing a speck was shown. […]

[3] = test system: NLRP3 inflammasome; assay: IL-18 secretion from LPS-primed primary human monocytes upon ATP stimulation (ELISA); type: cell-based; settings: human blood monocytes, LPS 0.1 μg/ml 4 h, ATP 30 min; 25, 50 and 100 μM; Fig. 8B
Experimental: (§1) Human monocytic THP-1 cells (1 × 10^7 cells) were plated in a 10-cm tissue culture dish and treated with PMA (200 nM) overnight to differentiate monocytic cells into macrophages. Cells were then washed and allowed to rest in fresh media for another day. For stimulation, differentiated THP-1 cells were trypsinized and seeded in 96-well plates (2 × 10^6/well). Peripheral blood mononuclear cells were isolated by Ficoll-Hypaque density gradient centrifugation from buffy coats obtained from anonymous donors provided by the National University Hospital Blood Bank, Singapore. Isolation of monocytes was performed using negative selection with the Monocyte Isolation Kit II (Miltenyi Biotech), following the manufacturer’s instructions. Monocytes were plated in tissue culture non-treated 96-well plates (2.5 × 10^5/well) in 250 µl RPMI 1640-Glutamax media supplemented with 3% human AB serum (Gemini Bio Products). […]
(§2) IL-1β levels were measured using antibodies from eBioscience (cat. #14-7018-81 and #13-7016-85), following the manufacturer’s instructions. IL-18 levels were measured using antibodies from MBL (D044-3 and D045-6) following the manufacturer’s instructions. The absorbance was measured at 450 nm with the reference wavelength at 570 nm, using an M200 Infinite plate reader (Tecan).

[4] = test system: NLRP3 inflammasome; assay: IL-1β secretion from LPS-primed primary human monocytes upon ATP stimulation (ELISA); type: cell-based; settings: human blood monocytes, LPS 0.1 μg/ml 4 h, ATP 30 min; 25, 50 and 100 μM; Fig. 8B
Experimental: as §1, §2

SMILES	Fluorescent signal (MFI) of internalized peptide over time [1]	ASC speck formation [2]	IL-18 secretion (in words) [3]	IL-1β secretion (in words) [4]
CC[C@H](C)[C@@H]1NC(=O)[C@H](CCCCN)NC(=O)[C@H](C)NC(=O)[C@H](CC(C)C)NC(=O)[C@H](CCCCN)NC(=O)[C@](C)(NC(=O)[C@H](C)NC(=O)[C@H](CCCNC(=N)N)NC(=O)[C@H](C)NC(=O)[C@@H](NC(C)=O)[C@@H](C)O)CCCCCCC=CCCC[C@@](C)(C(=O)N[C@@H](CCC(=O)O)C(=O)N[C@@H](CO)C(=O)N[C@H](C(N)=O)C(C)C)NC(=O)[C@H](CCCCN)NC1=O [ms_ASC^PYD #5] (Ac-TARA[R8]KLAKIK[S5]ESV-NH2; staple 5-12)	the fluorescent intensity subsequently decreased over-time	significantly inhibited speck formation	effectively inhibited	effectively inhibited
CC[C@H](C)[C@@H]1NC(=O)[C@H](CCCCN)NC(=O)[C@H](C)NC(=O)[C@H](CCCCN)NC(=O)[C@H](CCCCN)NC(=O)[C@](C)(NC(=O)[C@H](C)NC(=O)[C@H](CCCNC(=N)N)NC(C)=O)CCCCCCC=CCCC[C@@](C)(C(=O)N[C@@H](CCC(=O)O)C(=O)N[C@@H](CO)C(=O)N[C@H](C(N)=O)C(C)C)NC(=O)[C@H](CCCCN)NC1=O [ms_ASC^PYD #6] (Ac-RA[R8]KKAKIK[S5]ESV-NH2; staple 3-10)	–	significantly inhibited speck formation	effectively inhibited	effectively inhibited
